pIC50: −log10 of the molar value. Square brackets hold non-standard residues; d marks the D form. Peptide text beside a SMILES is read from it. * marks the point of attachment. Propionyl = CCC(=O)*; Mpa = O=C(O)CCS
Legend:
[1] = molecular target: Stromelysin-1 (MMP-3) (Rattus norvegicus) (UniProt P03957); assay: Compound was tested for its inhibitory activity against Matrix metalloprotease-3 (MMP-3) in adjuvant arthritic rat model of rheumatoid arthritis
[2] = molecular target: Stromelysin-1 (MMP-3) (Rattus norvegicus) (UniProt P03957); assay: as above; remark: listed apart in the source

Stromelysin-1 (MMP-3) (Rattus norvegicus), sequence (P03957 whole entry, looked up): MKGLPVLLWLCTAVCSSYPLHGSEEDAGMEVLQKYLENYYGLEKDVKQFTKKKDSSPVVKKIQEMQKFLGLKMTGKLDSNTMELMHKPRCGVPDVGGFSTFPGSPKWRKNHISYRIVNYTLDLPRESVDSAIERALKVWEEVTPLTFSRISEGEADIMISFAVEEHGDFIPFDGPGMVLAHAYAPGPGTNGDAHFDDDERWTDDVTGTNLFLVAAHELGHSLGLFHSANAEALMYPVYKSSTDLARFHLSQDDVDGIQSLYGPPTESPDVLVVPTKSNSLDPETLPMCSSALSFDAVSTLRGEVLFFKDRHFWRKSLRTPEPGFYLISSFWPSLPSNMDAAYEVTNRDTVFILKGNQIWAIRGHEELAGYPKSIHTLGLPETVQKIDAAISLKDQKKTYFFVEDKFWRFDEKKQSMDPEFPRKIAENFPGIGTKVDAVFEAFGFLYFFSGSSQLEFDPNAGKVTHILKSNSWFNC

Compound | pIC50 [1] | pIC50 [2]
CNC(=O)[C@H](Cc1c[nH]c2ccccc12)NC(=O)[C@H](CSC)NC(=O)CS [(R)-N-[(S)-2-(1H-Indol-3-yl)-1-methylcarbamoyl-ethyl]-2-(2-mercapto-acetylamino)-3-methylsulfanyl-propionamide] |  | 6.09
CNC(=O)[C@H](Cc1ccccc1)NC(=O)[C@H](CSC)NC(=O)CS [(R)-2-(2-Mercapto-acetylamino)-N-((S)-1-methylcarbamoyl-2-phenyl-ethyl)-3-methylsulfanyl-propionamide] | 6.19 | 
CNC(=O)[C@H](Cc1ccccc1)NC(=O)[C@H](C[S+](C)[O-])NC(=O)CS (stereo partly drawn) [(R)-2-(2-Mercapto-acetylamino)-3-methanesulfinyl-N-((S)-1-methylcarbamoyl-2-phenyl-ethyl)-propionamide] | 5.07 | 
CNC(=O)[C@H](Cc1ccccc1)NC(=O)[C@H](CC(C)C)NC(=O)CS [(S)-2-(2-Mercapto-acetylamino)-4-methyl-pentanoic acid ((S)-1-methylcarbamoyl-2-phenyl-ethyl)-amide] | 5.59 | 

The remaining lines, values ahead:

pIC50 [1] | pIC50 [2] | Compound
< 4.00 |  | CNC(=O)[C@H](Cc1ccccc1)NC(=O)[C@@H](NC(=O)CS)C(C)O (stereo partly drawn) [(S)-3-Hydroxy-2-(2-mercapto-acetylamino)-N-((S)-1-methylcarbamoyl-2-phenyl-ethyl)-butyramide]
< 4.00 |  | CNC(=O)[C@H](Cc1ccccc1)NC(=O)[C@H](CC(C)C)NC(=O)CSC [(S)-4-Methyl-2-(2-methylsulfanyl-acetylamino)-pentanoic acid ((S)-1-methylcarbamoyl-2-phenyl-ethyl)-amide]
< 4.00 |  | CNC(=O)[C@H](Cc1ccccc1)NC(=O)[C@H](CC(C)C)NC(=O)CCS [(S)-2-(3-Mercapto-propionylamino)-4-methyl-pentanoic acid ((S)-1-methylcarbamoyl-2-phenyl-ethyl)-amide] ([Mpa]-Leu-Phe-NHMe)
 | 6.37 | CNC(=O)[C@H](Cc1cscn1)NC(=O)[C@H](CC(C)C)NC(=O)CS [(S)-2-(2-Mercapto-acetylamino)-4-methyl-pentanoic acid ((S)-1-methylcarbamoyl-2-thiazol-4-yl-ethyl)-amide]
 | 6.37 | CNC(=O)[C@H](Cc1c[nH]c2ccccc12)NC(=O)[C@H](CC(C)C)NC(=O)CS [(S)-2-(2-Mercapto-acetylamino)-4-methyl-pentanoic acid [(S)-2-(1H-indol-3-yl)-1-methylcarbamoyl-ethyl]-amide]
< 4.00 |  | CCC(=O)N[C@@H](CC(C)C)C(=O)N[C@@H](Cc1ccccc1)C(=O)NC [(S)-4-Methyl-2-propionylamino-pentanoic acid ((S)-1-methylcarbamoyl-2-phenyl-ethyl)-amide] (Propionyl-Leu-Phe-NHMe)

Reference: BindingDB's records for doi:10.1016/S0960-894X(97)00125-X (1997)
